This is an account of results in patent US8158656B2, “2-indolinone derivatives as multi-target protein kinase inhibitors and histone deacetylase inhibitors” (Shenzhen Chipscreen Biosciences Ltd., priority 2008, dated 2012).

Common to all, as to assay type: cell-based
For experiment [1], the system named is PDGFRβ NIH-3T3 cells. As to the kind of experiment: PDGF ligand-dependent cell proliferation. The note with it: Mus musculus, NIH3T3; NIH-3T3 expressing human PDGFRβ, PDGF BB 50 ng/ml, 72 hours, MTS. Here is the method: Measurement of in vivo inhibition on receptor ligand-dependent cell proliferation: PDGF dependent cell proliferation:
NIH-3T3 mouse fibroblasts cell line engineered to stably express human PDGFRβ was constructed and used to evaluate PDGF dependent cell proliferation. PDGFRβ NIH-3T3 cells were plated into 96-well plates at 5,000 per well and incubated with serum-free medium for 24 hours. Compounds and PDGF BB (50 ng/ml) were added and incubated for 72 hours in serum-free medium. The effects on proliferation were determined by addition of MTS reagent (Promega) according to the instruction, incubation for 2 hours at 37° C. in CO2 incubator, and record the absorbance at 490 nm using an ELISA plate reader.

Experiment [2] concerns the target T1, HDAC7 (Homo sapiens, UniProt Q8WUI4).
T1 construct: endogenous in cells; host or cells: HeLa
T1 sequence (Q8WUI4 1-952): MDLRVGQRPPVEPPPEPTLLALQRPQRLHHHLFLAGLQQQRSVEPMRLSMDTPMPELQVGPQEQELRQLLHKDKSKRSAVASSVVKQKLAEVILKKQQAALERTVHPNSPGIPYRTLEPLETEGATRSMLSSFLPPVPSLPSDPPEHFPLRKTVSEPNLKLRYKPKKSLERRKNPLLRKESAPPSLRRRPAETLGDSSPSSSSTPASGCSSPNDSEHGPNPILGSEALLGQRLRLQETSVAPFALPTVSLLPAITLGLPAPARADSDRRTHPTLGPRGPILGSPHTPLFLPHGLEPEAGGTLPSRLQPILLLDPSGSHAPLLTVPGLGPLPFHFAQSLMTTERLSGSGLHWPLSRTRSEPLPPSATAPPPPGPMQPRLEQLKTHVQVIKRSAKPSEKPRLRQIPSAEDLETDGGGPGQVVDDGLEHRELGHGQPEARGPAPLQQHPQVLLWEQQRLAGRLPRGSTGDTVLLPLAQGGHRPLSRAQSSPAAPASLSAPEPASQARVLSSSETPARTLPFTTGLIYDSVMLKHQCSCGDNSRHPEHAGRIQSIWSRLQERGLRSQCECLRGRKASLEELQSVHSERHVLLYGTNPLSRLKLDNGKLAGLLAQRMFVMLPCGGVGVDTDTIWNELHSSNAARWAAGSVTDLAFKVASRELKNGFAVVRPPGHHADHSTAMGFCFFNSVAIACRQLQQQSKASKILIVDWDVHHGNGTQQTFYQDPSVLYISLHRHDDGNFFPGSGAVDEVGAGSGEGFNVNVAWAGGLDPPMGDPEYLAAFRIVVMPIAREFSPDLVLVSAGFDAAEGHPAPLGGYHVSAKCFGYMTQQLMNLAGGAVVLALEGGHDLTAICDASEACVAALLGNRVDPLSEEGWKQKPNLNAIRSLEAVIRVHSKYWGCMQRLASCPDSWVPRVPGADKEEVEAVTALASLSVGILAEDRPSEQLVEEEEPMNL
As to the kind of experiment: Nur77 reporter assay in HeLa cells. The note with it: for EC50: 24 hours; for HDAC7 (Nur77 reporter assay) % Max Resp of CS055 at 3 μM: relative to CS055 at 3 μM. How it is done:
HDAC subtype selectivity inhibition assay of tested compounds was carried out by several reporter gene assays experiments. Briefly, HeLa cells were seeded in 96-well plates the day before transfection to give a confluence of 50-80%. Cells were transfected with one of reporter gene plasmid containing a promoter sequence or response element upstream of a luciferase gene construct using FuGene6 transfection reagent according to the manufacturer's instruction (Roche). The promoters or response elements including p21-promoter, gdf11-promoter, MEF-binding element (MEF2), Nur77-promoter were fused upstream to the luciferase gene reporter construct. For normalizing the transfection efficiency, a GFP expression plasmid was cotransfected. Cells were allowed to express protein for 24 hours followed by addition of individual compounds or the vehicle (DMSO). 24 hours later the cells were harvested, and the luciferase assay and GFP assay were performed using corresponding assay kits according to the manufacturer's instructions (Promega).
On the technique in general: In a reporter assay the amount or activity of a reporter protein is the signal.

The subject of experiment [3] is Bel-7402. The experiment in a line: Tumor cell proliferation (MTS), Bel-7402. The note with it: Homo sapiens, Bel-7402, 72 hours. Here is the method:
Measurement of in vivo cell proliferation:
Tumor cells were trypsinized and plated into 96-well plates at 3,000 per well and incubated in complete medium with 10% FBS for 24 hours. Compounds were added over a final concentration range of 100 μmol/L to 100 nmol/L in 0.1% DMSO and incubated for 72 hours in complete medium. The effects on proliferation were determined by addition of MTS reagent (Promega) according to the instruction, incubation for 2 hours at 37° C. in CO2 incubator, and record the absorbance at 490 nm using an ELISA plate reader.

As a reminder, the GI50 is the concentration at which growth is held to half of that of the control. The EC50 is the midpoint of the concentration-response curve. Lower therefore signals higher potency in that assay.

For the compound `Cc1[nH]c(/C=C2\C(=O)Nc3ccc(F)cc32)c(C)c1C(=O)NCCNc1ccc(C(=O)Nc2ccccc2N)cn1` [Example 3, (Z)-N-(2-aminophenyl)-6-(2-(2-((5-fluoro-2-oxoindolin-3-ylidene)methyl)-3,5-dimethyl-1H-pyrrole-4-carboxamido)ethylamino)nicotinamide], in experiment [1], the concentration for 50% growth inhibition (GI50) was more than 1000 nM. In experiment [2], the EC50 worked out at 2900 nM and the “HDAC7 (Nur77 reporter assay) % Max Resp of CS055 at 3 μM” value (from here on “HDAC7 (Nur77 reporter assay) % Max Resp”) is recorded as 113.5%. The GI50 in experiment [3] was more than 60 µM.

In the case of `Cc1[nH]c(/C=N/N=C2\C(=O)Nc3ccc(F)cc32)c(C)c1C(=O)NCCNc1ccc(C(=O)Nc2ccccc2N)cn1` [Example 4, N-(2-aminophenyl)-6-(2-(2-(((5-fluoro-2-oxoindolin-3-ylidene)hydrazono)-methyl)-3,5-dimethyl-1H-pyrrole-4-carboxamido)ethylamino)nicotinamide], the GI50 is more than 1000 nM in experiment [1] and more than 60 µM in experiment [3]. The “HDAC7 (Nur77 reporter assay) % Max Resp” value in experiment [2] is listed as 3.9%.

As to `Cc1[nH]c(/C=C2\C(=O)Nc3ccc(F)cc32)c(C)c1C(=O)NCCCNc1ccc(C(=O)Nc2ccccc2N)cn1` [Example 6, (Z)-N-(2-aminophenyl)-6-(3-(2-((5-fluoro-2-oxoindolin-3-ylidene)methyl)-3,5-dimethyl-1H-pyrrole-4-carboxamido)propylamino)nicotinamide], in experiment [1], the GI50 is more than 1000 nM. Besides, in experiment [2], the EC50 amounted to 2500 nM and the “HDAC7 (Nur77 reporter assay) % Max Resp” value was 88.1%. The GI50 in experiment [3] is more than 60 µM.

Take `Cc1[nH]c(/C=N/N=C2\C(=O)Nc3ccc(F)cc32)c(C)c1C(=O)NCCCNc1ccc(C(=O)Nc2ccccc2N)cn1` [Example 7, N-(2-aminophenyl)-6-(3-(2-(((5-fluoro-2-oxoindolin-3-ylidene)hydrazono)-methyl)-3,5-dimethyl-1H-pyrrole-4-carboxamido)propylamino)nicotinamide]: the values for the GI50 in experiment [1] and in experiment [3] were more than 1000 nM and more than 60 µM, respectively. Besides, the “HDAC7 (Nur77 reporter assay) % Max Resp” value in experiment [2] came to 12.4%.

The compound `Cc1[nH]c(/C=C2\C(=O)Nc3ccc(F)cc32)c(C)c1C(=O)NCCCCNc1ccc(C(=O)Nc2ccccc2N)cn1` [Example 9, (Z)-N-(2-aminophenyl)-6-(4-(2-((5-fluoro-2-oxoindolin-3-ylidene)methyl)-3,5-dimethyl-1H-pyrrole-4-carboxamido)butylamino)nicotinamide] yielded a concentration for 50% growth inhibition (GI50) in experiment [1] of 105 nM. Besides, in experiment [2], the response was half-maximal at 13200 nM (EC50) and the “HDAC7 (Nur77 reporter assay) % Max Resp” value is 88.7%. In experiment [3], this compound returned a 50% growth inhibitory concentration (GI50) of more than 60 µM.

`Cc1[nH]c(/C=N/N=C2\C(=O)Nc3ccc(F)cc32)c(C)c1C(=O)NCCCCNc1ccc(C(=O)Nc2ccccc2N)cn1` [Example 10, N-(2-aminophenyl)-6-(4-(2-(((5-fluoro-2-oxoindolin-3-ylidene)hydrazono)-methyl)-3,5-dimethyl-1H-pyrrole-4-carboxamido)butylamino)nicotinamide]: the GI50 was more than 1000 nM in experiment [1] and more than 60 µM in experiment [3]. Besides, in experiment [2], the “HDAC7 (Nur77 reporter assay) % Max Resp” value turned out to be 13.2%.

Turning to `Cc1[nH]c(/C=C2\C(=O)Nc3ccc(F)cc32)c(C)c1C(=O)NCCNc1ccc(C(=O)Nc2ccc(F)cc2N)cn1` [Example 13, (Z)-N-(2-amino-4-fluorophenyl)-6-(2-(2-((5-fluoro-2-oxoindolin-3-ylidene)-methyl)-3,5-dimethyl-1H-pyrrole-4-carboxamido)ethylamino)nicotinamide], the 50% growth inhibitory concentration (GI50) in experiment [1] is more than 1000 nM; in experiment [3] it was more than 60 µM. The “HDAC7 (Nur77 reporter assay) % Max Resp” value in experiment [2] came to 6.4%.

On to `Cc1[nH]c(/C=N/N=C2\C(=O)Nc3ccc(F)cc32)c(C)c1C(=O)NCCNc1ccc(C(=O)Nc2ccc(F)cc2N)cn1` [Example 14, N-(2-amino-4-fluorophenyl)-6-(2-(2-(((5-fluoro-2-oxoindolin-3-ylidene)-hydrazono)methyl)-3,5-dimethyl-1H-pyrrole-4-carboxamido)ethylamino)nicotinamide], for which the results for the GI50 in experiment [1] and in experiment [3] were more than 1000 nM and more than 60 µM, respectively. In addition, the “HDAC7 (Nur77 reporter assay) % Max Resp” value in experiment [2] was 4.5%.

As to `Cc1[nH]c(/C=C2\C(=O)Nc3ccc(F)cc32)c(C)c1C(=O)NCCCNc1ccc(C(=O)Nc2ccc(F)cc2N)cn1` [Example 16, (Z)-N-(2-amino-4-fluorophenyl)-6-(3-(2-((5-fluoro-2-oxoindolin-3-ylidene)-methyl)-3,5-dimethyl-1H-pyrrole-4-carboxamido)propylamino)nicotinamide], the results for the concentration for 50% growth inhibition (GI50) in experiment [1] and in experiment [3] were more than 1000 nM and more than 60 µM, respectively. Besides, the “HDAC7 (Nur77 reporter assay) % Max Resp” value in experiment [2] is listed as 6.5%.

Consider `Cc1[nH]c(/C=N/N=C2\C(=O)Nc3ccc(F)cc32)c(C)c1C(=O)NCCCNc1ccc(C(=O)Nc2ccc(F)cc2N)cn1` [Example 17, N-(2-amino-4-fluorophenyl)-6-(3-(2-(((5-fluoro-2-oxoindolin-3-ylidene)-hydrazono)methyl)-3,5-dimethyl-1H-pyrrole-4-carboxamido)propylamino)nicotinamide], for which the figures for the GI50 in experiment [1] and in experiment [3] were more than 1000 nM and more than 60 µM, respectively. Moreover, the “HDAC7 (Nur77 reporter assay) % Max Resp” value in experiment [2] worked out at 3.5%.

Turning to `Cc1[nH]c(/C=C2\C(=O)Nc3ccc(F)cc32)c(C)c1C(=O)NCCCCNc1ccc(C(=O)Nc2ccc(F)cc2N)cn1` [Example 19, (Z)-N-(2-amino-4-fluorophenyl)-6-(4-(2-((5-fluoro-2-oxoindolin-3-ylidene)-methyl)-3,5-dimethyl-1H-pyrrole-4-carboxamido)butylamino)nicotinamide], the 50% growth inhibitory concentration (GI50) was more than 1000 nM in experiment [1] and more than 60 µM in experiment [3]. For the same compound, the “HDAC7 (Nur77 reporter assay) % Max Resp” value in experiment [2] is listed as 6.0%.

For `Cc1[nH]c(/C=N/N=C2\C(=O)Nc3ccc(F)cc32)c(C)c1C(=O)NCCCCNc1ccc(C(=O)Nc2ccc(F)cc2N)cn1` [Example 20, N-(2-amino-4-fluorophenyl)-6-(4-(2-(((5-fluoro-2-oxoindolin-3-ylidene)-hydrazono)methyl)-3,5-dimethyl-1H-pyrrole-4-carboxamido)butylamino)nicotinamide], the GI50 in experiment [1] was more than 1000 nM; in experiment [3] it was more than 60 µM. Besides, the “HDAC7 (Nur77 reporter assay) % Max Resp” value in experiment [2] is 1.0%.
